Tests used:
[1] = test system: p21 gene; experiment: p21 mRNA expression by RT-qPCR in Ku-7-LG cells; assay type: cell-based, human; conditions: 10 nM
Procedure: Ku-7-LG and T24 cells were transfected with the indicated saRNA at a final concentration of 10 nM for 3 days. After transfection, the RNA was extracted with the Qiagen RNeasy kit. After reverse transcription, the ABI 7500 fast real-time PCR system was used for qPCR amplification. The GAPDH gene was amplified as an internal reference. […] Dashed line indicates duplex Rag1-40 with no chemical modification in comparison, and the values above the line indicate stronger activity. The control was blank transfection without oligonucleotide. dsCon2 is transfected with a double-stranded scramble RNA. The value of the ordinate represents the mean±SD of 2 repeated treatments.
The control and dsCon2 were blank transfection and scramble dsRNA transfection, respectively. The values in the ordinate represent the mean±SD of 2 repeated treatments.
Human bladder cancer cells Ku-7-LG (ATCC), J82 (ATCC) and T24 (ATCC) were cultured in McCoy medium (Gibco) comprising 10% calf serum (Sigma-Aldrich) and 1% penicillin/Streptomycin (Gibco). Cells were cultured at 37° C. under 5% CO2. Ku-7-LG, J82 and T24 cells were plated into 12-well plates at 10×10^4 cells per well, transfected with the small RNA at a concentration of 10 nM (unless otherwise specified) for three days, using RNAiMax (Invitrogen, Carlsbad, CA) according to the manufacturer's instructions. Two replicate wells were set for each treatment.
After transfection, the medium was discarded and to each well 500 μl cell lysate was added and incubated at room temperature for 5 minutes. RNA was extracted with the Qiagen RNeasy kit, and after reverse transcription, qPCR analysis was performed on the ABI 7500 Fast Real-time PCR system (Applied Biosystems). Each sample was amplified in 3 replicate wells.
The PCR reaction conditions are: 95° C. for 30 seconds, 95° C. for 5 seconds, 60° C. for 30 seconds, and 40 cycles of amplification. The GAPDH gene was amplified as an internal reference at the same time. p21 was amplified with the p21F1/R1 primer pair, and the specific sequences of the amplification primers are shown in Table 1.
In order to calculate the expression value (Erel) of p21 (target gene) of a saRNA transfection sample relative to the control treatment, Formula 1 is used to input the Ct values of the target gene and the internal reference gene for calculation.
wherein, CtTm is the Ct value of the target gene from the control treatment sample; CtTs is the Ct value of the target gene from the saRNA treated sample; CtRm is the Ct value of the internal reference gene from the control treatment sample; and CtRs is the Ct value of the internal reference gene from the saRNA treated sample.
The main purpose of introducing chemical modifications to regulatory oligonucleotides of a gene is to improve their pharmaceutical properties, including enhancing in vivo stability and mitigating off-target effects (e.g., sequence-dependent targeting of unrelated genes, sequence-dependent or independent immune stimulation), while maintaining their gene regulatory capacity (gene knockdown or activation). To assess the effect of chemical modification on the RNAa activity of saRNA on the p21 gene, 10 nM unmodified (Rag1-40) and modified (Rag1-40-1 to Rag1-40-34) duplexes were transfected into Ku-7-LG and T24 cells, respectively. After 72 hours, the mRNA expression level of p21 was assessed by RT-qPCR. All duplexes induced p21 mRNA expression in all […] at least double that of the control.
In order to further evaluate the expression level of p21 mRNA after the different durations of treatment by the chemically modified saRNA duplexes, two saRNAs (RAG1-40-31 and RAG1-40-53) were randomly selected from the above chemically modified saRNA duplexes for detection. RAG1-40-31 and RAG1-40-53 were transfected into Ku-7-LG and T24 cells at a final concentration of 10 nM, for 1, 2, 3, 4, 7 and 9 days, respectively. Each treatment was set up in duplicate. […]

[2] = test system: Ku-7-LG cells; experiment: Cell cycle detection by flow cytometry in Ku-7-LG cells; assay type: cell-based, human; conditions: 48 hours
Procedure: RAG1-40-31 and RAG1-40-53 were transfected into Ku-7-LG cells at the final concentrations of 0.1, 1, 10 and 50 nM, and the transfection duration was 48 hours. Two replicate wells were used for each treatment. After transfection, the cell cycle was analyzed by flow cytometry, and the collected data were analyzed by MotFit software.
After transfection, the supernatant was discarded to collect cells. To each well 500 μL PBS was added for one wash and then discarded. To each well 100 μL trypsin was further added. 900 μL medium was added to stop digestion before transferring to a 1.5 mL centrifuge tube. All the cells were collected through centrifugation (400 rcf, 5 min) and counted (2×10^5 cells/200 μL PBS). Cold 70% absolute ethanol was added before incubation overnight at 4° C. After washing twice with PBS, 200 μL Krishan buffer was added before incubation at 4° C. for 1 hour. After washing twice with PBS, the supernatant was discarded and 200 μL PBS was added for cell re-suspension, then the cells were transferred to a 96-well plate and analyzed by flow cytometer. The collected data were analyzed with MotFit software.
In order to study the mechanism of cellular proliferation suppression, change in cell cycle was analyzed using flow cytometry in this example. Randomly selected saRNAs RAG1-40-31 and RAG1-40-53 were transfected into Ku-7-LG cells at final concentrations of 0.1, 1, 10 and 50 nM, respectively, for 48 hours. Each treatment was set in duplicate. Cell cycle was detected and analyzed as described in the general protocol above.

[3] = biological target: T1, RNase A (Bos taurus, UniProt P61823)
T1 sequence (P61823 27-150): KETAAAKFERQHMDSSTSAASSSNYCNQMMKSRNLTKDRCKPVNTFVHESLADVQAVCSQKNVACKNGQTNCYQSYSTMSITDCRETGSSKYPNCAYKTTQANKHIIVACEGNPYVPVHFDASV
Procedure: The duplexes obtained at each time point above were each added to 1 μL of 10× loading buffer, and then frozen in liquid nitrogen. After incubation, all samples were detected for the double-stranded RNA by 4% agarose gel electrophoresis, and the content of each duplex was analyzed by Image J software.
The duplexes obtained at each time point indicated above were each added to 1 μL of 10× loading buffer, and then frozen in liquid nitrogen. After incubation, all samples were detected for the double-stranded RNA by 4% agarose gel electrophoresis, and the content of each duplex was analyzed by Image J software.
saRNA (1.5 μL, 10 μM) was incubated at a final concentration of 0.02 mg/mL in PBS in the presence of RNase A (Amresco, OH, USA) at 37° C. for different durations. At the end of the incubation, the mixture was snap frozen in liquid nitrogen to stop nuclease activity. Samples were analyzed on a 4% agarose gel and examined for duplex degradation.
All chemically modified duplexes (Rag1-40-1 to Rag1-40-32) were incubated with 0.02 μg/L of RNase A for different durations (0 to 96 hours). At the end of the incubation, the size and amount of duplexes were detected by agarose gel electrophoresis.

RAG1-40-31: saRNA duplex: sense fCfCAACUCAUUCUCCAAG*U*C (SEQ ID NO 16); antisense U*A*fCfUfUGGAGAAfUGAGfUfUGG*fC*A (SEQ ID NO 12) (sense CCAACUCAUUCUCCAAGUC; antisense UACUUGGAGAAUGAGUUGGCA; 2'-F and phosphorothioate modifications; modified_base (1)..(2) (1,2)=2′-fluoro; modified_base (17)..(19) (17,18,19)=phosphorothioate (PS) backbone modification; modified_base (2)..(21) (2,3,19,20,21)=phosphorothioate (PS) backbone modification; modified_base (3)..(20) (3,4,5,12,16,17,20)=2′-fluoro)
increase of expression level of p21 mRNA compared with the control group ([1]; 1 day): 1.3 fold
increase of expression level of p21 mRNA compared with the control group ([1]; 2 days): 11.4 fold
increase of expression level of p21 mRNA compared with the control group ([1]; 3 days): 8.7 fold
increase of expression level of p21 mRNA compared with the control group ([1]; 4 days): 6.1 fold
increase of expression level of p21 mRNA compared with the control group ([1]; 7 days): 2.6 fold
increase of expression level of p21 mRNA compared with the control group ([1]; 9 days): 3.8 fold
percentage of cells in DNA anaphase/mitosis (G2/M) ([2]; 0.1 nM): 6%
percentage of cells in DNA replication phase (S phase) ([2]; 0.1 nM): 32%
percentage of cells in prophase of DNA synthesis (G0/G1) ([2]; 0.1 nM): 62%
percentage of cells in DNA anaphase/mitosis (G2/M) ([2]; 1 nM): 9%
percentage of cells in DNA replication phase (S phase) ([2]; 1 nM): 22%
percentage of cells in prophase of DNA synthesis (G0/G1) ([2]; 1 nM): 69%
percentage of cells in DNA anaphase/mitosis (G2/M) ([2]; 10 nM): 8%
percentage of cells in DNA replication phase (S phase) ([2]; 10 nM): 11%
percentage of cells in prophase of DNA synthesis (G0/G1) ([2]; 10 nM): 81%
percentage of cells in DNA anaphase/mitosis (G2/M) ([2]; 50 nM): 13%
percentage of cells in DNA replication phase (S phase) ([2]; 50 nM): 6%
percentage of cells in prophase of DNA synthesis (G0/G1) ([2]; 50 nM): 81%
degradation of duplex at 96 hours [3]: little or no signs of degradation

— patent US20240301409A1, “Chemically Modified Small Activating RNA” (RACTIGEN THERAPEUTICS, priority 2021, published 2024)
